For data set [1], the system named is HbF in SCD erythroid progenitors. The data set can be described thus: Flow cytometry for F-cells and HbF MFI in sickle erythroid progenitors. The note with it: for mean F-cells: vehicle 5.8%. It is filed as cell-based, human.
Data set [2] concerns γ-globin and β-globin mRNA in SCD erythroid progenitors. The data set can be described thus: Globin mRNA in sickle erythroid progenitors. The note with it: for increase in γ-globin mRNA: day 7 to day 12, n = 6 SCD subjects, vs vehicle. The format is cell-based, human.
A further data set has as its target T1, HDAC6 (Homo sapiens, UniProt Q9UBN7).
T1 sequence (Q9UBN7 1-1215): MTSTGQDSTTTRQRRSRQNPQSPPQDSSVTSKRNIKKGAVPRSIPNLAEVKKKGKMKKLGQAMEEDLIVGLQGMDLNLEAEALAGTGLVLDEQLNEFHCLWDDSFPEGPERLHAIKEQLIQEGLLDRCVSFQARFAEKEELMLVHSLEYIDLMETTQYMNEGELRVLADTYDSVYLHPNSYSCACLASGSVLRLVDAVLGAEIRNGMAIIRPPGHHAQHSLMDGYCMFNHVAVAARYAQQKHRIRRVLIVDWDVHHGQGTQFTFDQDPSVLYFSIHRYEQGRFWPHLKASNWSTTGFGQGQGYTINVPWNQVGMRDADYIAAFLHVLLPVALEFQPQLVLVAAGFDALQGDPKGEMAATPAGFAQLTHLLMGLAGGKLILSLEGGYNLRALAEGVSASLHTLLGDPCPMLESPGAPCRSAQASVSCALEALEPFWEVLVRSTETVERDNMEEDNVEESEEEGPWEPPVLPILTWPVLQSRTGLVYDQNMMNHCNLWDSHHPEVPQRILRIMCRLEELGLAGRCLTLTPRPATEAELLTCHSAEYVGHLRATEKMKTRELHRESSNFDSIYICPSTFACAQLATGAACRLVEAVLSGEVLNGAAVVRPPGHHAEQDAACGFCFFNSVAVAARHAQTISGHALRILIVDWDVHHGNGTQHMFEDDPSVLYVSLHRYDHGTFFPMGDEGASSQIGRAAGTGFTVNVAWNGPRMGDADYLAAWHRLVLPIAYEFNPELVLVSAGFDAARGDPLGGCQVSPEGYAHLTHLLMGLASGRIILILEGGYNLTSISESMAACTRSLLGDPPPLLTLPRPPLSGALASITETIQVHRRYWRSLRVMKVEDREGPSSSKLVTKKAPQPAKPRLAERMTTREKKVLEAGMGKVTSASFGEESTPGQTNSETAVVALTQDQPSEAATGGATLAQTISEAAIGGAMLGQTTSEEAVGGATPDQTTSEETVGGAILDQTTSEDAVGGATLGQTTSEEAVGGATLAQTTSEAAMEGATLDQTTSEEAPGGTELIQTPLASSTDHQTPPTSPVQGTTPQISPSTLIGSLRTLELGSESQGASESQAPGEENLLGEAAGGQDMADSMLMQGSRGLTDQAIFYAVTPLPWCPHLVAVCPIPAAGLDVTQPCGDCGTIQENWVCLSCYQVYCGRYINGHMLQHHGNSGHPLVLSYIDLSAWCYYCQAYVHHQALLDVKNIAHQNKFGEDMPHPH
As to the kind of experiment: In vitro HDAC inhibition assay. The note with it: 10-dose IC50 mode. It is filed as biochemical.

A further data set has as its system Class I HDAC (HDAC 1-3). The data set can be described thus: In vitro HDAC inhibition assay. The format is biochemical.
The test system of data set [3] is γ-globin mRNA in K562 cells. As to the kind of experiment: γ-globin mRNA induction in K562 cells. The format is cell-based, human. Particulars: 48 h, CT108 3 μM, CT-101 5 μM, ST-20 20 μM, valproic acid 1 mM and 2 mM, vs control.
Data set [4] deals with HbF and HbS protein in SCD erythroid progenitors. The data set can be described thus: Western blot for HbF and HbS protein in sickle erythroid progenitors. It is filed as cell-based, human. A general note: Immunoblotting shows a protein as a band on a membrane.
The test system of data set [5] is SCD erythroid progenitors. The data set can be described thus: Erythroid maturation and growth of sickle erythroid progenitors. The format is cell-based, human. Particulars: 5 days of treatment (day 12).
The test system of data set [6] is acH3 and RNA PolII at γ-globin promoter, β-globin promoter, LCR-HS2. It is filed as cell-based, human. Particulars: for RNA PolII and acH3 chromatin enrichment in the LCR-HS2: Fig. 5E.
Another data set has as its system K562 cells. The data set can be described thus: Cell growth/proliferation of K562 cells. Particulars: over the concentration range tested. The format is cell-based, human.
Data set [7] relates to Class IIa and Class IV HDAC isoforms. As to the kind of experiment: In vitro HDAC inhibition assay. It is filed as biochemical. The note with it: 10-dose IC50 mode.
Data set [8] has as its system acetylated histone H3 (acH3). As to the kind of experiment: Western blot for nuclear acetylated histone H3 in sickle erythroid progenitors. It is filed as cell-based, human.
The subject of data set [9] is HbF. Particulars: SCD patients, intravenous; cited from earlier work.
The subject of the next data set is HDACs 1-9, and 11. The data set can be described thus: In vitro HDAC inhibition assay, profile over all isoforms tested. The note with it: heat map Fig. 1A.
For data set [10] the following is noted: nine SCD subjects, 10 mg per day, 3 days per week; ref NCT01245179; cited from earlier work.
Data set [11] relates to HbF. Particulars: three patients with Hodgkin's lymphoma, 3 months of therapy; cited from earlier work.

Data on six compounds can be found in paper PMC9733664 (Blood cells, molecules & diseases, 2021).

SMILES strings stand for the structures.

As to `CCCCCCCC(=O)SCC/C=C/[C@@H]1CC(=O)NCc2nc(cs2)C2=N[C@@](C)(CS2)C(=O)N[C@@H](C(C)C)C(=O)N1` [CT-101], the “mean F-cells” value was determined as 8.1% in data set [1] (100 nM, p < 0.01) and 7.4% in data set [1] (200 nM, p < 0.001). For the same compound, in data set [1] (vs DMSO vehicle controls, same subject), the “mean increase in the proportion of F-cells” value was 30%. For the same compound, the figures for the “increase in γ-globin mRNA” value in [2] (100 nM) and in [2] (200 nM) were 3.9 fold and 7 fold, respectively. The β-globin transcription result in data set [2] (sickle erythroid progenitors) is recorded as “did not alter”. Besides, the “inhibition of HDAC6” value on HDAC6 is “Some inhibition”. The IC50 in the data set on Class I HDAC (HDAC 1-3) (read-out: IC50 as Class I HDACi, lowest level over Class I isoforms) is at least 4 nM. In addition, the “IC50 for HDAC 1-3” value in the data set with Class I HDAC (HDAC 1-3) (singlet 10-dose IC50 mode, 3-fold serial dilution, active free thiol form tested) is reported as “nanomolar concentrations”. Moreover, in data set [3], the “γ-globin mRNA / HbF expression induction” value turned out to be 11 fold. For the same compound, the “HbF level increase by Western blot” value in data set [4] (200 nM, vs untreated control progenitors, p < 0.01) is “up to 1.7 fold”. The HbS protein level result in data set [4] (Western blot, Fig. 3C) is recorded as “not significantly changed”. The “decrease in number of orthochromatic erythroid cells” value in data set [5] (100 nM) amounted to 42%; in [5] (200 nM), 56%. Also, in data set [6] (CT-101 100 mM and 200 nM, 48 h), the “acH3 chromatin enrichment in the γ-globin promoter” value is 3.8 fold. Moreover, the “RNA PolII and acH3 chromatin enrichment in the LCR-HS2” value in data set [6] was “increased”. Further, the “RNA PolII and acH3 chromatin enrichment in the β^s-globin proximal promoter” value in data set [6] (vs vehicle treated cells) is “not changed”. The cell proliferation result in the data set with K562 cells is “did not inhibit cell proliferation”. For the same compound, the “inhibition of Class IIa and Class IV isoforms” value in [7] is reported as “little to no inhibition”. The “increase in acH3 level” value in data set [8] (100 nM, n = 6) is on record as 1.8 fold; in data set [8] (200 nM, n = 6) it was 2.0 fold.
For `CCCC(=O)O.CCCC(=O)O.CCCC(=O)O.CCCC(=O)O.N=C(N)NCCC[C@H](N)C(=O)O.N=C(N)NCCC[C@H](N)C(=O)O.N=C(N)NCCC[C@H](N)C(=O)O` [arginine butyrate], the “enhancement of HbF levels” value with HbF [9] is given as 3 fold.
For the compound `O=C(/C=C/c1cccc(S(=O)(=O)Nc2ccccc2)c1)NO` [belinostat], the “HDAC isoform inhibition profile / selectivity” value in the data set on HDACs 1-9, and 11 is recorded as “inhibited most HDAC isoforms to some degree”.
Turning to `Cc1[nH]c2ccccc2c1CCNCc1ccc(/C=C/C(=O)NO)cc1` [panobinostat], the “HDAC isoform inhibition profile / selectivity” value in the data set with HDACs 1-9, and 11 is recorded as “inhibited most HDAC isoforms to some degree”. The tolerability entry in data set [10] was “without dose limiting or serious adverse effects”. Moreover, the “increase in HbF” value in the data set on HbF [11] is reported as 2 fold.
`CCCC(=O)[O-].[Na+]` [sodium butyrate, reference compound]: the “decrease of β-globin mRNA level” value in data set [2] (sodium butyrate 0.2 μM, day 7 to day 12) is recorded as 80%. In addition, in data set [4] (sodium butyrate 0.2 μM, vs untreated control), the “HbF level increase by Western blot” value was determined as 1.4 fold. Further, the “RNA PolII and acH3 chromatin enrichment in the LCR-HS2” value in data set [6] is reported as “increased”. Also, in data set [8] (sodium butyrate), the “increase in acH3 level” value came out at 3 fold.
On to `NC(=O)NO` [HU, hydroxyurea, reference compound], for which the “HbF level increase by Western blot” value in data set [4] (HU 75 μM, vs untreated control) came to 1.3 fold.

By IC50 is commonly meant the midpoint of a concentration-inhibition curve.
